Results as given in US20180098969A1, “HODGKIN LYMPHOMA THERAPY” (Purdue Pharmaceutical Products L.P., priority 2016, published 2018).

Assays:
[1] = system: non-resistant L1236 Hodgkin lymphoma cell lines; experiment: Viable cell count and IC50, non-resistant lines; format: cell-based, human; details: FIG. 6B
Experimental: (b) The bendamustine-resistant Hodgkin lymphoma cell line L1236-R100, non-resistant L1236 Hodgkin lymphoma cell line cultured in DMSO L1236/DMSO and L1236 was cultured in the presence of EDO-S101 dissolved in DMSO at concentrations of 0.78 μM, 1.56 μM, 3.12 μM, 6.25 μM and 12.5 μM. Control cells were cultured in the same final concentration of DMSO. The number of viable cells was assessed at 24, 48 and 72 hours through a Countess™ automated cell counter (Invitrogen), each experiment being repeated three times and the results given being the mean of the three results ±SD.

[2] = system: relapsed-refractory Hodgkin lymphoma; details: in vivo; cited from earlier work

Cn1c(CCCC(=O)O)nc2cc(N(CCCl)CCCl)ccc21 [bendamustine]
IC50 [1]: high IC50 values
relapsed/refractory Hodgkin lymphoma patients resistant [2]: about 40%
